Test results reported in publication PMC6695626, “Detection of Osmotic Shock-Induced Extracellular Nucleotide Release with a Genetically Encoded Fluorescent Sensor of ADP and ATP” (Sensors (Basel, Switzerland), 2019).

Target: T1, ADP sensor (mTFP1-ParM-mVenus cp157 terminal fusion; ADPrime sensor, soluble form) (Escherichia coli, UniProt P11904, C287A/K33A/T174A/T175N)
T1 construct: ParM flanked by FRET reporters: wild-type mTFP1 via SGITS linker at N-terminus, mVenus-cp157 via AAA linker at C-terminus; expressed in E. coli DH5alpha
T1 sequence (P11904 1-320 K33A/T174A/T175N/C287A): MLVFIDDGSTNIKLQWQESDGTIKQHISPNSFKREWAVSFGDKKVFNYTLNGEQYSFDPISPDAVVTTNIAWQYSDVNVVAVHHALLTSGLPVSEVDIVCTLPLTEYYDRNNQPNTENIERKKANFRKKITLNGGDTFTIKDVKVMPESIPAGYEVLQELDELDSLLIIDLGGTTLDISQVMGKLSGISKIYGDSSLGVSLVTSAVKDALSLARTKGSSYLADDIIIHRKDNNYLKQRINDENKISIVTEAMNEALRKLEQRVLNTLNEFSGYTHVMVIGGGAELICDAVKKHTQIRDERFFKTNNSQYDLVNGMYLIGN
Experiment: FRET ratio (mTFP1/mVenus) dose response, Hill fit
Assay type: binding
Settings: read-out: apparent Kd

Row | Compound | Kd [µM]
1 | Nc1ncnc2c1ncn2[C@@H]1O[C@H](COP(=O)(O)OP(=O)(O)O)[C@@H](O)[C@H]1O [ADP] | 0.16 ± 0.06
2 | Nc1ncnc2c1ncn2[C@@H]1O[C@H](COP(=O)(O)OP(=O)(O)OP(=O)(O)O)[C@@H](O)[C@H]1O [ATP] | 9.9 ± 6.3
